{"source": "patent US20050192308A1", "about": "(priority 2001, published 2005)", "biological_target": "Mu opioid receptor (Homo sapiens, UniProt P35372)", "sequence (P35372 whole entry)": "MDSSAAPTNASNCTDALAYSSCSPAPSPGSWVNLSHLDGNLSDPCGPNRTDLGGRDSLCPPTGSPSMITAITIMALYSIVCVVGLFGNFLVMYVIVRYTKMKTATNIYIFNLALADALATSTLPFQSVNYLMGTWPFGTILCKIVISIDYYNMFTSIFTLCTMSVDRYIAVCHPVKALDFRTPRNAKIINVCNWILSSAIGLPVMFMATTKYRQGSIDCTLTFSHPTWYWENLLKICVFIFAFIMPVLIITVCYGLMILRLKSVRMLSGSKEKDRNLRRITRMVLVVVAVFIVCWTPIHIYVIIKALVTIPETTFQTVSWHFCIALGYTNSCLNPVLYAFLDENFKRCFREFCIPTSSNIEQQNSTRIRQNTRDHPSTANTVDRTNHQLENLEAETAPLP"}
{"smiles": "C[C@@H](NC(=O)[C@@H](N)Cc1ccc(O)cc1)C(=O)NCC(=O)N(C)[C@@H](Cc1ccccc1)C(=O)NCCO", "note": "[DAMGO Control, DAMGO]", "values": [{"measurement": "Functional GTPgS Mu Efficacy % DAMGO", "value": "100 ± 0", "unit": "%"}]}
